Test results from ChEMBL document CHEMBL4507275, “Data for DCP probe BI-2545” (2021).

What was measured:
[1] = biological target: Dual specificity mitogen-activated protein kinase kinase 2 (Homo sapiens) (UniProt P36507); details: Compound concentration 1000.0 nM
[2] = biological target: RAF proto-oncogene serine/threonine-protein kinase (Homo sapiens) (UniProt P04049); details: Compound concentration 1000.0 nM
[3] = biological target: 5-hydroxytryptamine receptor 2C (Homo sapiens) (UniProt P28335); details: Compound concentration 10.0 uM
5-hydroxytryptamine receptor 2C (Homo sapiens), sequence (P28335 whole entry): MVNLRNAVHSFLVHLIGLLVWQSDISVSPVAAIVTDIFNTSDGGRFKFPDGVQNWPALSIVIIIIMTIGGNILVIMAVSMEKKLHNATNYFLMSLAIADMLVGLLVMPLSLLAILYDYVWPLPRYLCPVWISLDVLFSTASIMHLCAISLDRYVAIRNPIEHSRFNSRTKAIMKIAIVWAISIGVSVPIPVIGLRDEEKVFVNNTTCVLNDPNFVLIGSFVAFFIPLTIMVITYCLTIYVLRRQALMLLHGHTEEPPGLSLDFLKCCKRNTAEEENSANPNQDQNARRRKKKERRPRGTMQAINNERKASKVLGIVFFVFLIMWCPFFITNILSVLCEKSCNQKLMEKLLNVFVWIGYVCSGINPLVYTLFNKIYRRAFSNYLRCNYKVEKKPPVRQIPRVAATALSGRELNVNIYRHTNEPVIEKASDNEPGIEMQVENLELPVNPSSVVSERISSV

[4] = biological target: Dual specificity tyrosine-phosphorylation-regulated kinase 1A (Homo sapiens) (UniProt Q13627); details: Compound concentration 1000.0 nM
[5] = biological target: Ephrin type-A receptor 2 (Homo sapiens) (UniProt P29317); details: Compound concentration 1000.0 nM
[6] = biological target: Ephrin type-A receptor 1 (Homo sapiens) (UniProt P21709); details: Compound concentration 1000.0 nM
[7] = biological target: Mast/stem cell growth factor receptor Kit (Homo sapiens) (UniProt P10721); details: Compound concentration 1000.0 nM
[8] = biological target: Calcium/calmodulin-dependent protein kinase type 1B (Homo sapiens) (UniProt Q6P2M8); details: Compound concentration 1000.0 nM
[9] = biological target: Phosphorylase b kinase gamma catalytic chain, skeletal muscle/heart isoform (Homo sapiens) (UniProt Q16816); details: Compound concentration 1000.0 nM
[10] = system: Tyrosine-protein kinase ABL1 (Homo sapiens), P00519 [H396P]; details: Compound concentration 1000.0 nM
[11] = biological target: Serine/threonine-protein kinase pim-2 (Homo sapiens) (UniProt Q9P1W9); details: Compound concentration 1000.0 nM
[12] = biological target: Tyrosine-protein kinase Fgr (Homo sapiens) (UniProt P09769); details: Compound concentration 1000.0 nM
[13] = biological target: RAC-alpha serine/threonine-protein kinase (Homo sapiens) (UniProt P31749); details: Compound concentration 1000.0 nM
[14] = biological target: MAP kinase-interacting serine/threonine-protein kinase 1 (Homo sapiens) (UniProt Q9BUB5); details: Compound concentration 1000.0 nM
[15] = biological target: Serine/threonine-protein kinase WNK4 (Homo sapiens) (UniProt Q96J92); details: Compound concentration 1000.0 nM
Serine/threonine-protein kinase WNK4 (Homo sapiens), sequence (Q96J92 whole entry): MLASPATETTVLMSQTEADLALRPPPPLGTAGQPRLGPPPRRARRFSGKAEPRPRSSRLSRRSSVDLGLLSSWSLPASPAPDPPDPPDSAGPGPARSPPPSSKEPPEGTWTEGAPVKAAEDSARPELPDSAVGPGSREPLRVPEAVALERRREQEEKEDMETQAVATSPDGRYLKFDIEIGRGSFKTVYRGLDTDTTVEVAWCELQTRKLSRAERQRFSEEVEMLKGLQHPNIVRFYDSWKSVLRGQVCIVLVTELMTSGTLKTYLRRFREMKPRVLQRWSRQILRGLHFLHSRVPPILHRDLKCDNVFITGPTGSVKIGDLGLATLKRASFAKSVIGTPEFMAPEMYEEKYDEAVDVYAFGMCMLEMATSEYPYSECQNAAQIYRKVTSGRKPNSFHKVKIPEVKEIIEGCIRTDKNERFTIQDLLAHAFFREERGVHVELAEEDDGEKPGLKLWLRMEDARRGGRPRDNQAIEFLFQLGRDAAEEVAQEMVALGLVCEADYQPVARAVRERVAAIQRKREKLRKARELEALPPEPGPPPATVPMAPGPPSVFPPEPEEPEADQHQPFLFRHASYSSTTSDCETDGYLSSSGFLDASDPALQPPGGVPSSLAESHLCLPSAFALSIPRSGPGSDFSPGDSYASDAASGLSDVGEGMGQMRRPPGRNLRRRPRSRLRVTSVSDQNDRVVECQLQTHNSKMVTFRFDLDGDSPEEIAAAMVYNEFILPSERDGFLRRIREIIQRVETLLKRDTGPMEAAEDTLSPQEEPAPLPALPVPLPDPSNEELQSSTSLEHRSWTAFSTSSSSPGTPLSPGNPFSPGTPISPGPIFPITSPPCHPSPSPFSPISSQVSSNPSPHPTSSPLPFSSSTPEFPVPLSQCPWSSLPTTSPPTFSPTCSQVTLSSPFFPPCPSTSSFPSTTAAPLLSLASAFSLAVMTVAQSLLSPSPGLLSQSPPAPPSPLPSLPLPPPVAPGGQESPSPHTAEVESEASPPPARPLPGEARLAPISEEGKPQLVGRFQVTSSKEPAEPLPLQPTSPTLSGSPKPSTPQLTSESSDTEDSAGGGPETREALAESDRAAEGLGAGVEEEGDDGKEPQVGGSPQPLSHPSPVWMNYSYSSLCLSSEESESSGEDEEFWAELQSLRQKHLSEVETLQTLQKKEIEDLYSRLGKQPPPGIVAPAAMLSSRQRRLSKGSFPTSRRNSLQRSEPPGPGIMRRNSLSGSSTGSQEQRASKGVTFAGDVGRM

[16] = biological target: Serine/threonine-protein kinase WNK3 (Homo sapiens) (UniProt Q9BYP7); details: Compound concentration 1000.0 nM
[17] = biological target: Beta-3 adrenergic receptor (Homo sapiens) (UniProt P13945); details: Compound concentration 10.0 uM
Beta-3 adrenergic receptor (Homo sapiens), sequence (P13945 whole entry, looked up): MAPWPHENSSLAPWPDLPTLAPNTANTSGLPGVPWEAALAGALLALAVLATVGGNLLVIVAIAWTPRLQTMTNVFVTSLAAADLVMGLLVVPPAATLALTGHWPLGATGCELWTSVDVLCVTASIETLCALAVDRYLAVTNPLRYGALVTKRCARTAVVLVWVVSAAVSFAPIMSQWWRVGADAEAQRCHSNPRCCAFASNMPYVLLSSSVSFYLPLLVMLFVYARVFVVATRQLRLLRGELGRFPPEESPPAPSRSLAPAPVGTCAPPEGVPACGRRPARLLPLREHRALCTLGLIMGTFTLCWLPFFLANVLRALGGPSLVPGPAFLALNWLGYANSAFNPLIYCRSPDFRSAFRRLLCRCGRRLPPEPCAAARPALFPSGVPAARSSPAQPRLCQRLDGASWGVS

[18] = biological target: Phosphatidylinositol 4-phosphate 5-kinase type-1 alpha (Homo sapiens) (UniProt Q99755); details: Compound concentration 1000.0 nM
[19] = biological target: Vascular endothelial growth factor receptor 3 (Homo sapiens) (UniProt P35916); details: Compound concentration 1000.0 nM
[20] = biological target: Inhibitor of nuclear factor kappa-B kinase subunit epsilon (Homo sapiens) (UniProt Q14164); details: Compound concentration 1000.0 nM
[21] = biological target: Serine/threonine-protein kinase MARK1 (Homo sapiens) (UniProt Q9P0L2); details: Compound concentration 1000.0 nM
[22] = biological target: Serine/threonine-protein kinase BRSK1 (Homo sapiens) (UniProt Q8TDC3); details: Compound concentration 1000.0 nM
[23] = system: Epidermal growth factor receptor (Homo sapiens), P00533 [L858R]; details: Compound concentration 1000.0 nM
[24] = biological target: Dual specificity mitogen-activated protein kinase kinase 1 (Homo sapiens) (UniProt Q02750); details: Compound concentration 1000.0 nM
[25] = biological target: Proto-oncogene tyrosine-protein kinase receptor Ret (Homo sapiens) (UniProt P07949); details: Compound concentration 1000.0 nM
[26] = biological target: 5-hydroxytryptamine receptor 2B (Homo sapiens) (UniProt P41595); details: Compound concentration 10.0 uM
[27] = biological target: RAC-beta serine/threonine-protein kinase (Homo sapiens) (UniProt P31751); details: Compound concentration 1000.0 nM
RAC-beta serine/threonine-protein kinase (Homo sapiens), sequence (P31751 whole entry): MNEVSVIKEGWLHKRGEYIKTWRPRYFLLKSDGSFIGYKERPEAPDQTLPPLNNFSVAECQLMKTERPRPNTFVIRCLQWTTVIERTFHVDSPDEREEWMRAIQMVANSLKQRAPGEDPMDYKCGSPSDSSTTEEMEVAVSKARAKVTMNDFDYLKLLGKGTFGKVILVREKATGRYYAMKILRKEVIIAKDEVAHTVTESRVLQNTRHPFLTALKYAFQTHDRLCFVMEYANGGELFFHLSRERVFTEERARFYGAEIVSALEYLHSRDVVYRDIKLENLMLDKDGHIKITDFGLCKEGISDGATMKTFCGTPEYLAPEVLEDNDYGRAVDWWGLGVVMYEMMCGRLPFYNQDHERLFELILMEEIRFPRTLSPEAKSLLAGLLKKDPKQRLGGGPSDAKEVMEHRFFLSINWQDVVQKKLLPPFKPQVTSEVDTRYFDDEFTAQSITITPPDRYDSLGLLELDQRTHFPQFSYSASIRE

[28] = biological target: Death-associated protein kinase 2 (Homo sapiens) (UniProt Q9UIK4); details: Compound concentration 1000.0 nM
[29] = biological target: Cyclin-G-associated kinase (Homo sapiens) (UniProt O14976); details: Compound concentration 1000.0 nM
[30] = system: Receptor-type tyrosine-protein kinase FLT3 (Homo sapiens), P36888 [K663Q]; details: Compound concentration 1000.0 nM
[31] = biological target: Mitogen-activated protein kinase kinase kinase 10 (Homo sapiens) (UniProt Q02779); details: Compound concentration 1000.0 nM
[32] = biological target: Tyrosine-protein kinase Lyn (Homo sapiens) (UniProt P07948); details: Compound concentration 1000.0 nM
Tyrosine-protein kinase Lyn (Homo sapiens), sequence (P07948 2-512 limits assumed): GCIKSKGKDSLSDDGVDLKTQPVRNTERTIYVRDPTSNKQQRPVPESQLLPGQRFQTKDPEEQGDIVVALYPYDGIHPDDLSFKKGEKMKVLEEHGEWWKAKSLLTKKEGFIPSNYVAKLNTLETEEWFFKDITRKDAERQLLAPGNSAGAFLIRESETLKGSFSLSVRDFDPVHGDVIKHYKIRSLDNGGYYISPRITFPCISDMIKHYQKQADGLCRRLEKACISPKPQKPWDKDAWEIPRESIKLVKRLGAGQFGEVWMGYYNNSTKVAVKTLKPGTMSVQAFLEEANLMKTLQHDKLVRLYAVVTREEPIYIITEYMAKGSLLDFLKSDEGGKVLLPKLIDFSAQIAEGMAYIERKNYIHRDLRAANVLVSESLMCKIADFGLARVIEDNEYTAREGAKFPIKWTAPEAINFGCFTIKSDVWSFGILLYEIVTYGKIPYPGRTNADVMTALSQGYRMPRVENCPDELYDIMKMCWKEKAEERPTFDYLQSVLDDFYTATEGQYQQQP

[33] = biological target: Dual specificity mitogen-activated protein kinase kinase 4 (Homo sapiens) (UniProt P45985); details: Compound concentration 1000.0 nM
Dual specificity mitogen-activated protein kinase kinase 4 (Homo sapiens), sequence (P45985 whole entry, canonical isoform): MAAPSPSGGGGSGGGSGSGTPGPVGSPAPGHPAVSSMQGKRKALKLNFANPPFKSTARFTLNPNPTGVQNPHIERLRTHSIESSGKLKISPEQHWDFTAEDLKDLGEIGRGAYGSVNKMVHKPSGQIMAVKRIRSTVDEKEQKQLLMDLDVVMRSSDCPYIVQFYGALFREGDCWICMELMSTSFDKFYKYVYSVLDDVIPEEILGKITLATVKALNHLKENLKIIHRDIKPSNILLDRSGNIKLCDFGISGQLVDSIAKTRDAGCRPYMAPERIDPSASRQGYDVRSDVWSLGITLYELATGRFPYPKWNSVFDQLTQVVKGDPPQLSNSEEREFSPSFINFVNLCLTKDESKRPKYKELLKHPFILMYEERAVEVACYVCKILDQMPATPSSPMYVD

[34] = system: Phosphatidylinositol 4,5-bisphosphate 3-kinase catalytic subunit alpha isoform (Homo sapiens), P42336 [H1047L]; details: Compound concentration 1000.0 nM
[35] = biological target: G protein-coupled receptor kinase 3 (Homo sapiens) (UniProt P35626); details: Compound concentration 1000.0 nM
[36] = biological target: Mitotic checkpoint serine/threonine-protein kinase BUB1 (Homo sapiens) (UniProt O43683); details: Compound concentration 1000.0 nM
[37] = biological target: Mitogen-activated protein kinase kinase kinase 20 (Homo sapiens) (UniProt Q9NYL2); details: Compound concentration 1000.0 nM
[38] = biological target: Serine/threonine-protein kinase Nek4 (Homo sapiens) (UniProt P51957); details: Compound concentration 1000.0 nM
[39] = biological target: Misshapen-like kinase 1 (Homo sapiens) (UniProt Q8N4C8); details: Compound concentration 1000.0 nM
[40] = system: Proto-oncogene tyrosine-protein kinase receptor Ret (Homo sapiens), P07949 [V804M]; details: Compound concentration 1000.0 nM
Proto-oncogene tyrosine-protein kinase receptor Ret (Homo sapiens), P07949 [V804M], sequence (P07949 whole entry V804M): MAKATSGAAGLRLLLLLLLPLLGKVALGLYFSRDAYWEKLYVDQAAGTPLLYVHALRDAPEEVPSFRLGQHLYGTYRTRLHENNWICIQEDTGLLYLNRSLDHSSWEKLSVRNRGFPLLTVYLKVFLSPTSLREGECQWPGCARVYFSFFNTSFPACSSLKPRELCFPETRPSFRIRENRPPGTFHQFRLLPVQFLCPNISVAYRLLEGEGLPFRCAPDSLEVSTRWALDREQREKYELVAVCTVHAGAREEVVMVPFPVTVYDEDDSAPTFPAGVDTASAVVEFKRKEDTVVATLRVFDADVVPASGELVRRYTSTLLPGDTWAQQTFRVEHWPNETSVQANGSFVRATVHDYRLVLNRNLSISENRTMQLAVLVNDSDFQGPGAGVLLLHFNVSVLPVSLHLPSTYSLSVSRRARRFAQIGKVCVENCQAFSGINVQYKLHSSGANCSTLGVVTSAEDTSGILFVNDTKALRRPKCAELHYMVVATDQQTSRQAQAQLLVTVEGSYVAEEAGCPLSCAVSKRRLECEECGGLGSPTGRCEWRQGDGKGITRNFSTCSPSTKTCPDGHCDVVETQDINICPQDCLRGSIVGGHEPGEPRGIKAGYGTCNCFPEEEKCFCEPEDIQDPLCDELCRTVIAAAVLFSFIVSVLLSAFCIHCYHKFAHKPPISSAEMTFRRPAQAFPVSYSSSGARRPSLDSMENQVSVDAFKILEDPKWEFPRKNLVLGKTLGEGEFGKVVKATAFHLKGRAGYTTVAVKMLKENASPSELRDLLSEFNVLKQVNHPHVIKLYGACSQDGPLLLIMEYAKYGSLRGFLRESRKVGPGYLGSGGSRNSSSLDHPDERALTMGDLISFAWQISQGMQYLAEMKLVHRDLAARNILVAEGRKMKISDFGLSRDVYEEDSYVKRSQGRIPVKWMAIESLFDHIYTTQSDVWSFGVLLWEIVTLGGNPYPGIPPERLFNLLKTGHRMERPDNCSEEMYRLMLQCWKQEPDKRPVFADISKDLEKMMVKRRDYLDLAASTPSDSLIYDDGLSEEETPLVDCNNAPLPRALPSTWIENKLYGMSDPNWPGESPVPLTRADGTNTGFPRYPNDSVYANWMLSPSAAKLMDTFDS

[41] = biological target: cAMP-dependent protein kinase catalytic subunit alpha (Homo sapiens) (UniProt P17612); details: Compound concentration 1000.0 nM
[42] = biological target: 5-hydroxytryptamine receptor 1E (Homo sapiens) (UniProt P28566); details: Compound concentration 10.0 uM
[43] = biological target: Mitogen-activated protein kinase 13 (Homo sapiens) (UniProt O15264); details: Compound concentration 1000.0 nM
Mitogen-activated protein kinase 13 (Homo sapiens), sequence (O15264 whole entry): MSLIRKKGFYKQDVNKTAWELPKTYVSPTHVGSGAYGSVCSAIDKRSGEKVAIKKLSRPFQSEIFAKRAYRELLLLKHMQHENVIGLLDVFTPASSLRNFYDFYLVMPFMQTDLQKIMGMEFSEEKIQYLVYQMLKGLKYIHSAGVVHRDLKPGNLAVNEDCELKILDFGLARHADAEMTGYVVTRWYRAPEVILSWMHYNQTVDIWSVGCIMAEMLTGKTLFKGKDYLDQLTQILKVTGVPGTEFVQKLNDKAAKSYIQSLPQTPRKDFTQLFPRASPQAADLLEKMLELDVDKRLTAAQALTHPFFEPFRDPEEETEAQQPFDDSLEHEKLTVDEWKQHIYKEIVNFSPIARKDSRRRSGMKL

[44] = biological target: Protein-tyrosine kinase 2-beta (Homo sapiens) (UniProt Q14289); details: Compound concentration 1000.0 nM
[45] = biological target: Ribosomal protein S6 kinase alpha-5 (Homo sapiens) (UniProt O75582); details: Compound concentration 1000.0 nM

Molecule `O=C(NC[C@@H]1[C@H]2CN(C(=O)OCc3cc(C(F)(F)F)cc(C(F)(F)F)c3)C[C@@H]12)c1ccc2[nH]nnc2c1` [BI 2545] has a residual activity [1] of 84%, a residual activity [2] of 100% and an inhibition [3] of 41.5%. The residual activity [4] was 86%, the residual activity [5] was 79% and the residual activity [6] was 100%. It also gave a residual activity [7] of 90%, a residual activity [8] of 100% and a residual activity [9] of 92%. It also gave a residual activity [10] of 91%, a residual activity [11] of 100% and a residual activity [12] of 88%. It also gave a residual activity [13] of 100%, a residual activity [14] of 90% and a residual activity [15] of 89%. It also gave a residual activity [16] of 100%, an inhibition [17] of 31.5% and a residual activity [18] of 93%. For the same molecule, the residual activity [19] was 88%, the residual activity [20] was 100% and the residual activity [21] was 98%. The residual activity [22] was 89%, the residual activity [23] was 100% and the residual activity [24] was 83%. For the same molecule, the residual activity [25] was 100%, the inhibition [26] was 45.9% and the residual activity [27] was 100%. It also gave a residual activity [28] of 85%, a residual activity [29] of 91% and a residual activity [30] of 98%. For the same molecule, the residual activity [31] was 83%, the residual activity [32] was 100% and the residual activity [33] was 95%. It also gave a residual activity [34] of 100%, a residual activity [35] of 90% and a residual activity [36] of 61%. For the same molecule, the residual activity [37] was 86%, the residual activity [38] was 84% and the residual activity [39] was 72%. For the same molecule, the residual activity [40] was 88%, the residual activity [41] was 100% and the inhibition [42] was 33.6%. For the same molecule, the residual activity [43] was 100%, the residual activity [44] was 85% and the residual activity [45] was 100%.
Work on `Cc1nccc(COC(=O)N2C[C@@H]3[C@@H](CNC(=O)c4ccc5[nH]nnc5c4)[C@@H]3C2)n1` [BI 3017] yielded a residual activity [1] of 84%, a residual activity [2] of 94% and an inhibition [3] of 31.1%. It also gave a residual activity [4] of 81%, a residual activity [5] of 92% and a residual activity [6] of 100%. The residual activity [7] was 79%, the residual activity [8] was 83% and the residual activity [9] was 100%. The residual activity [10] was 85%, the residual activity [11] was 0% and the residual activity [12] was 100%. The residual activity [13] was 100%, the residual activity [14] was 91% and the residual activity [15] was 100%. For the same molecule, the residual activity [16] was 91%, the inhibition [17] was -6.02% and the residual activity [18] was 100%. It also gave a residual activity [19] of 100%, a residual activity [20] of 100% and a residual activity [21] of 84%. It also gave a residual activity [22] of 100%, a residual activity [23] of 78% and a residual activity [24] of 92%. For the same molecule, the residual activity [25] was 93%, the inhibition [26] was 27.1% and the residual activity [27] was 98%. For the same molecule, the residual activity [28] was 82%, the residual activity [29] was 100% and the residual activity [30] was 100%. The residual activity [31] was 85%, the residual activity [32] was 100% and the residual activity [33] was 100%. For the same molecule, the residual activity [34] was 79%, the residual activity [35] was 70% and the residual activity [36] was 90%. The residual activity [37] was 90%, the residual activity [38] was 79% and the residual activity [39] was 100%. It also gave a residual activity [40] of 100%, a residual activity [41] of 88% and an inhibition [42] of 31.8%. The residual activity [43] was 98%, the residual activity [44] was 100% and the residual activity [45] was 74%.
